In patent publication US8901071B2, “Compounds and their use” (Novabiotics Limited, priority 2010, dated 2014):
No end group written: not given here.

What was measured:
[1] = test system: P. aeruginosa bacterial biofilms; assay: bacterial biofilm assay, Example 2 (optical density at 625 nm; FIGS. 3-4); type: cell-based; conditions: biofilm grown 18 hours, 24 hours incubation, 0 to 1 mg/ml, combinations in equal concentration
Method: (§1) P. aeruginosa bacterial biofilms and S. aureus bacterial biofilms were grown in Mueller-Hinton agar in separate 96-well microtitre plates for 18 hours at 37 degrees Celsius. The planktonic cells and medium were then removed and the bacterial biofilms were washed three times with phosphate buffer solution at a pH of around 7. Two-fold dilutions of three different antimicrobial agents in Mueller Hinton broth were then added to the bacterial biofilms. The microtitre plates were incubated at 37 degrees Celsius for 24 hours. The medium was then transferred to a fresh microtitre plate and the optical density of the bacterial biofilm was measured at 625 nm on a microtitre plate reader (BioTek Powerwave, X S, Winooski, USA.
(§2) The antimicrobial agents tested were NP432 alone, a combination of NP432 and NM001 in equal concentration, a combination of NP432 and NP 108 in equal concentration, NP445 alone, a combination of NP445 and NM001 in equal concentration, a combination of NP445 and NP 108 in equal concentration. The antimicrobial agents were tested at concentrations of 0 to 1 mg/ml against P. aeruginosa bacterial biofilms and S. aureus bacterial biofilms.

[2] = test system: S. aureus bacterial biofilms; assay: bacterial biofilm assay, Example 2 (optical density at 625 nm; FIGS. 5-6); type: cell-based; conditions: biofilm grown 18 hours, 24 hours incubation, 0 to 1 mg/ml, combinations in equal concentration
Method: as §1, §2

[3] = test system: mice; assay: lethality of peptide in mice; type: in vivo; conditions: dose of around 5 mg/kg

Sequence | antimicrobial effect against P. aeruginosa bacterial biofilms [1] | antimicrobial effect against S. aureus bacterial biofilm [2] | lethality to mice [3]
KKFPWRLRLRYGRR (sythetic peptide) [NP445] | antimicrobial effect | antimicrobial effect | –
RRRFRFFFRFRRR [NP432, RRRFRFFFRFRRR] | – | – | non-lethal
